Key:
[1] = system: primary mouse CD4+ T cells; test: MTS proliferation assay, TGF-β1 treated primary mouse CD4+ T cells; assay type: cell-based
Description: Compounds A-D were tested to determine whether they could inhibit TGF-β signaling in primary mouse CD4^+ T cells.
Primary mouse CD4^+ T cells were isolated from the spleens of C57/B6 mice using the RoboSep™ cell isolation system (Stemcell Technologies). 0.5 μg/ml of hamster anti-mouse CD3e antibody (145-2C11; eBioscience) was coated onto a 96 well flat bottom plate overnight. 1×10^5 purified CD4^+ T cells were incubated with 1 μg/ml soluble hamster anti-mouse CD28 antibody (37.51, BD Biosciences), 1 nM TGF-β1 and 8-fold serial dilutions of Compounds A-D. After 72 hours, cell proliferation was measured using an MTS assay (Promega) in accordance with the manufacturer's instructions.

[2] = biological target: T1, ALK5 (Homo sapiens, UniProt P36897); test: recombinant kinase assays (IC50 and Ki); assay type: biochemical; settings: Compound C versus Compound N
T1 sequence (P36897 34-503): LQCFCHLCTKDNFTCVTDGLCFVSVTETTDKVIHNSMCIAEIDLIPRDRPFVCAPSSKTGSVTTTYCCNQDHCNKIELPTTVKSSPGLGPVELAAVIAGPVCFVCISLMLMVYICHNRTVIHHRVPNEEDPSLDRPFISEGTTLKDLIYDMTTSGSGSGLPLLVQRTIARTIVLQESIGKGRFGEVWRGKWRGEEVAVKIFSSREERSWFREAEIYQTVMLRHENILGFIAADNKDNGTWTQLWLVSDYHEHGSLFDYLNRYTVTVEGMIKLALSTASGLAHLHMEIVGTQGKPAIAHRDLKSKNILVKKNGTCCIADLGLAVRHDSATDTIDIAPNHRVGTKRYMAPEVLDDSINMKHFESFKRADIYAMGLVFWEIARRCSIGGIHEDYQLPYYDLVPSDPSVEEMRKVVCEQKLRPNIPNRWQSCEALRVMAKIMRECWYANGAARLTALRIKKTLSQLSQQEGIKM
Description: Compound N was compared to Compound C in a number of in vitro assays.

[3] = system: CMV responsive human PBMCs; test: Cytokine secretion assay (IFN-γ) with CMV antigens; assay type: cell-based; settings: 1 nM TGF-β, 1 ng/ml each agent, 48 hours
Description: In a 96-well round bottom plate, 1.5×10^5 CMV responsive human PBMCs (Astarte Biologics) were cultured with 1.5 μg/ml CMV antigens (Astarte Biologics) in serum free medium for 48 hours alone or in the presence of (i) 1 nM TGF-β, (ii) 1 nM TGF-β and T3A #5 at 1 ng/ml, (iii) 1 nM TGF-β and pembrolizumab at 1 ng/ml, (iv) 1 nM TGF-β, T3A #5 at 1 ng/ml, and pembrolizumab at 1 ng/ml, or (v) 1 nM TGF-β and isotype control antibody (negative control). IFN-γ levels were measured in the supernatants using a R&D ELISA kit.

| Compound | Experiment 1 IC50 (nM) ([1]; 1 nM TGF-β1, 72 hours) | reversal of TGFβ-mediated inhibition of T cell proliferation ([1]; in words) | other results |
| --- | --- | --- | --- |
| Cc1cccc(-c2nc(N)sc2-c2ccc3ncccc3n2)n1 [Compound A, 4-(6-methylpyridin-2-yl)-5-(1,5-naphthyridin-2-yl)-1,3-thiazol-2-amine] | Value not obtained | did not show consistent effects | – |
| CNCCOc1ccc(-c2cc(-c3c[nH]nc3-c3ccccn3)ccn2)cc1 [Compound B, N-methyl-2-(4-{4-[3-(pyridin-2-yl)-1H-pyrazol-4-yl]pyridin-2-yl}phenoxy)ethan-1-amine] | – | reversed TGFβ-mediated inhibition of T cell proliferation | – |
| CNCCOc1ccc(-c2cc(-c3c[nH]nc3-c3cccc(C)n3)ccn2)cc1 [Compound C, N-methyl-2-(4-{4-[3-(6-methylpyridin-2-yl)-1H-pyrazol-4-yl]pyridin-2-yl}phenoxy)ethan-1-amine] | – | reversed TGFβ-mediated inhibition of T cell proliferation | potency relative to Compound N in the recombinant assays [2]: 10 fold |
| CCNC(=O)c1ccc2c(c1)NC(=O)/C2=C(\Nc1ccc(N(CCNC)S(C)(=O)=O)cc1)c1ccccc1 [Compound D, (Z)-N-ethyl-3-(((4-(N-(2-(methylamino)ethyl)methylsulfonamido)phenyl)amino)(phenyl)methylene)-2-oxoindoline-6-carboxamide] | Value not obtained | – | Experiment 2 IC50 (nM) ([1]; Experiment 2, 1 nM TGF-β1, 72 hours): Value not obtained; IC50 value in mouse CD4+ T cells ([1]; two different experiments, in words): not obtained |
| pembrolizumab: T cell checkpoint inhibitor (anti-PD1, Merck) | – | – | IFN-γ levels [3]: increase IFN-γ levels |

Source: patent US20220249680A1, “ANTIBODY-ALK5 INHIBITOR CONJUGATES AND THEIR USES” (Synthis Therapeutics, Inc., priority 2019, published 2022)
